Source: patent publication US20250115571A1, “OXOPIPERAZINE DERIVATIVES” (Inthera Bioscience AG, priority 2017, published 2025)

Tests used:
[1] = tested on: patient-derived castration-resistant prostate tumor cells (model #PR6511); experiment: Castration resistant prostate cancer patient-derived xenograft (CRPC PDX); format: in vivo, mouse
Method: NSG NOD.Cg-PrkdcscidIj2rgtm1Wjl/SzJ mice (6-8 weeks of age) were injected with patient-derived castration-resistant prostate tumor cells (model #PR6511, Crown Bioscience UK Ltd Hillcrest, Osgathorpe Leicestershire, UK). The cells were inoculated subcutaneously into the left flank of 40 male NSG mice. When tumors reached a mean volume of approximately 100 mm^3 (i.e. 100 mm^3+/−54 mm^3, FIG. 3), mice were randomly assigned to five treatment groups of each eight mice (TABLE 9). Body weights were measured three times weekly prior to the initiation of dosing and daily thereafter. Tumor burden was assessed by caliper measurement three times weekly. Dosing breaks were applied when tolerability issues arose (body weight loss>10). Upon completion of the scheduled dosing phase at day 57, tumor outgrowth was monitored for groups 3, 4 and […] up to study day 77. Groups 1 and 2 were terminated on study day 57. Results of the experiment are shown in TABLES 10 and 11; and FIGS. 3 and 4. The experiment was performed in the Crown Bioscience Ltd. testing facility (Crown Bioscience UK Ltd Hillcrest, Dodgeford Lane, Osgathorpe Leicestershire LE12 9TE, UK).

[2] = tested on: SiHa human HPV16-positive cervical cancer cells; experiment: Cell-derived xenograft mouse model for cervical cancer (SiHa CDX); format: in vivo; conditions: p.o.; for Tumor Size day 37: SiHa CDX, female BALB/c nude mice, Mean ± SEM; for T/C: day 37, tumor-to-control ratio (volume/volume)
Method: (§1) Female BALB/c nude mice (7-9 weeks of age) were injected with SiHa human HPV16-positive (Human Papillomavirus type 16) cervical cancer cells. The cells were inoculated subcutaneously into the left flank of 48 mice. When tumors reached a mean volume of approximately 111 mm^3, mice were randomly assigned to eight treatment groups of each six mice (TABLE 18). Body weights were measured three times weekly prior to the initiation of dosing and daily thereafter. Tumor burden was assessed by caliper measurement twice weekly. Dosing breaks were applied when tolerability issues arose (body weight loss>10%). The study was terminated four weeks post first dosing. The experiment was performed in the Crown Bioscience Ltd. (Beijing) testing facility (Ground Floor, Light Muller Building, Changping Sector of Zhongguancun Scientific Park, No. 21 Huoju Road, Changping District, Beijing, CHIN).

[3] = tested on: HPV-positive head-and-neck squamous cell carcinoma model #HN11303; experiment: Patient-derived xenograft mouse model for head-and-neck squamous cell carcinoma (HN11303); format: in vivo; conditions: for mice tumor-free at the end of the observation period: HN11303 PDX, variable dosages (TABLE 23), all sixteen mice of the two groups; for mean TV: subcutaneous HPV-positive HNSCC model, female NMRI nu/nu mice
Method: Female NMRI nu/nu mice were injected with cells derived from a human head-and-neck cancer (model #HN11303, an HPV-positive head-and-neck squamous cell carcinoma, EPO-GmbH, Berlin, Germany). The cells were inoculated subcutaneously into the left flank of 40 mice. Thirteen days later tumors reached a mean volume of approximately 107 mm^3, and mice were randomly assigned to five treatment groups of each eight mice (TABLE 23). Body weights were measured twice weekly. Tumor burden was assessed by caliper measurement twice weekly. Dosing breaks were applied when tolerability issues arose (body weight loss>10). The study was terminated five weeks post first dosing. The experiment was performed in the EPO animal testing facility (Experimental Pharmacology and Oncology GmbH, 13125 Berlin-Buch, Germany).

[4] = tested on: HPV-positive head-and-neck squamous cell carcinoma model #HN10309; experiment: Patient-derived xenograft mouse model for head-and-neck squamous cell carcinoma (HN10309); format: in vivo; conditions: p.o. BID, 30 mg/kg, female NMRI nu/nu mice
Method: Female NMRI nu/nu mice were injected with cells derived from a human head-and-neck cancer (model #HN10309, an HPV-positive head-and-neck squamous cell carcinoma, EPO-GmbH, Berlin, Germany). The cells were inoculated subcutaneously into the left flank of 24 mice. Thirty-three days later tumors reached a mean volume of approximately 116 mm^3, and mice were randomly assigned to three treatment groups of each eight mice (TABLE 21). Body weights were measured twice weekly. Tumor burden was assessed by caliper measurement twice weekly. Dosing breaks were applied when tolerability issues arose (body weight loss>[…]). The study was terminated four weeks post first dosing. The experiment was performed in the EPO animal testing facility (Experimental Pharmacology and Oncology GmbH, 13125 Berlin-Buch, Germany).

[5] = tested on: MKN45 human gastric adenocarcinoma cells; experiment: Cell-derived xenograft mouse model for gastric cancer (MKN45 CDX); format: in vivo; conditions: 12 mg/kg, QW, i.v.
Method: as §1, with “(8-9” for “(7-9”, “MKN45” for “SiHa”, “gastric adenocarcinoma” for “HPV16-positive (Human Papillomavirus type 16) cervical cancer”, “103” for “111”, “16).” for “18).”, “CHN).” for “CHIN).”

[6] = p.o. QD, 30 mg/kg, groups of eight mice
[7] = 1 mg/kg, BID, listed as Compound 248

SMILES	Tumor Size day 37 ([2]; 3 mg/kg, BID)	T/C ([2]; 3 mg/kg, BID)	mice tumor-free at the end of the observation period [3]	mean TV ([3]; day 13)	mean TV ([3]; day 15)	mean TV ([3]; day 18)	mean TV ([3]; day 21)	mean TV ([3]; day 25)	mean TV ([3]; day 29)	mean TV ([3]; day 33)	mean TV ([3]; day 36)	mean TV ([4]; Day 33)	mean TV ([4]; Day 35)	mean TV ([4]; Day 38)	mean TV ([4]; Day 41)	mean TV ([4]; Day 45)	mean TV ([4]; Day 49)	mean TV ([4]; Day 53)	mean TV ([4]; Day 56)	further results
CNC(=O)c1ccc(N2C(=S)N(c3ccc(C#N)c(C(F)(F)F)c3)C(=O)C2(C)C)cc1F [Enzalutamide, enzalutamide, reference compound]	–	–	–	–	–	–	–	–	–	–	–	–	–	–	–	–	–	–	–	TWO-WAY ANOVA p (tumor size at the end of the study) vs. Vehicle ([1]; 30 mg/kg p.o. QD, n.s. = not significant): n.s.; CR (complete regression) = number of mice [1, 6]: 0; PR (partial regression) = number of mice [1, 6]: 0; TFS (Tumor Free Survival) = number of complete regressions recorded up to Group Day End [1, 6]: 0
CC(C)C[C@H]1C(=O)N([C@@H](CC(C)C)C(=O)N2CCC3(C[C@@H]2C)OCC(CN2CCCC2)CO3)CCN1C (stereo partly drawn) [Compound 273, (S)-1-[(S)-1-({(S)-8-Methyl-3-[(1-pyrrolidinyl)methyl]-1,5-dioxa-9-aza-9-spiro[5.5]un-decyl}carbonyl)-3-methylbutyl]-3-isobutyl-4-methyl-2-piperazinone]	942.0 ± 114.9 mm^3	79.3%	tumor-free	0.1063 cm^3	0.1073 cm^3	0.0948 cm^3	0.0875 cm^3	0.0451 cm^3	0.0194 cm^3	0.0056 cm^3	0.0031 cm^3	–	–	–	–	–	–	–	–	–
CC(C)C[C@@H]1NCCN([C@@H](CC(C)C)C(=O)N2CCC(CCN3CCC4(CC3)CC4)CC2)C1=O [Compound 282, (S)-1-[(S)-1-[(4-{2-(6-Aza-6-spiro[2.5]octyl)eth-yl}-1-piperidyl)carbonyl]-3-methylbutyl]-3-isobutyl-2-piperazinone]	–	–	–	0.1073 cm^3	0.1061 cm^3	0.1040 cm^3	0.0971 cm^3	0.1111 cm^3	0.1030 cm^3	0.1273 cm^3	0.1185 cm^3	0.1161 cm^3	0.1308 cm^3	0.1751 cm^3	0.2086 cm^3	0.3560 cm^3	0.4920 cm^3	0.6364 cm^3	0.6558 cm^3	–
CC(C)C[C@@H]1NCCN([C@@H](CC(C)C)C(=O)N2CCC3(C[C@@H]2C)OCC(CN2CCCC2)CO3)C1=O (stereo partly drawn) [Compound 248, (S)-1-[(S)-1-({(S)-8-Methyl-3-[(1-pyrrolidinyl)methyl]-1,5-dioxa-9-aza-9-spiro[5.5]un-decyl}carbonyl)-3-methylbutyl]-3-isobutyl-2-piperazinone]	178 ± 27 mm^3	19%	tumor-free	0.1064 cm^3	0.0958 cm^3	0.0916 cm^3	0.0511 cm^3	0.0499 cm^3	0.0288 cm^3	0.0068 cm^3	0.0041 cm^3	0.1159 cm^3	0.1248 cm^3	0.1389 cm^3	0.1093 cm^3	0.1794 cm^3	0.2398 cm^3	0.2964 cm^3	0.2569 cm^3	Tumor Size day 37 [2, 7]: 586 ± 82 mm^3; T/C [2, 7]: 62.6%; Tumor Size day 37 ([2]; 6 mg/kg, QD): 238 ± 37 mm^3; T/C ([2]; 6 mg/kg, QD): 25.4%
CC(C)C[C@@H]1NCCN([C@@H](CC(C)C)C(=O)N2CCC3(C[C@@H]2C)OCC(CN2CCC2)CO3)C1=O (stereo partly drawn) [Compound 318, (S)-1-[(S)-1-({(S)-3-[(1-Azetidinyl)methyl]-8-methyl-1,5-dioxa-9-aza-9-spiro[5.5]undecyl}car-bonyl)-3-methylbutyl]-3-isobutyl-2-piperazinone]	351 ± 68 mm^3	37.5%	–	–	–	–	–	–	–	–	–	–	–	–	–	–	–	–	–	–
CC(=O)O[C@H]1C(=O)[C@@]2(C)[C@H]([C@H](OC(=O)c3ccccc3)[C@]3(O)C[C@H](OC(=O)[C@H](O)[C@@H](NC(=O)c4ccccc4)c4ccccc4)C(C)=C1C3(C)C)[C@]1(OC(C)=O)CO[C@@H]1C[C@@H]2O [Paclitaxel, paclitaxel, reference compound]	–	–	–	–	–	–	–	–	–	–	–	–	–	–	–	–	–	–	–	Tumor Size day 29 ([5]; MKN45 CDX, female BALB/c nude mice, Mean ± SEM): 554.9 ± 52.8 mm^3; T/C ([5]; day 29, tumor-to-control ratio (volume/volume)): 46.6%
